Results as given in patent US20220062240A1, “METHODS OF TREATING CANCER USING A CLK INHIBITOR” (BioSplice Therapeutics, Inc., priority 2018, published 2022).
pEC50: −log10 of the molar value. Like-named read-outs stand apart in the source and are kept apart here. Blank lines part the entries; values can stand above or below the compound they belong to.

Tests used:
CLK2 = biological target: T1, CLK2 (Homo sapiens, UniProt P49760); experiment: CLK2 kinase activity assay (Z-lyte, Ser/Thr 6 peptide); format: biochemical; conditions: recombinant CLK2 kinase, ATP 60 μM; read-out: EC50
T1 construct: purchased Thermo Fisher (Life Technologies), Z'-LYTE Kinase Assay Kits
Procedure: All reactions were performed in duplicate.

BT-549 = experiment: CellTiter-Glo Viability Assay, breast cancer; format: cell-based; conditions: Homo sapiens, 96 h; BT-549, breast cancer, four days; read-out: EC50
CAMA1 = experiment: CellTiter-Glo Viability Assay, breast cancer; format: cell-based; conditions: Homo sapiens, CAMA-1, 96 h; CAMA1, breast cancer, four days; read-out: EC50
DU4475 = experiment: CellTiter-Glo Viability Assay, breast cancer; format: cell-based; conditions: Homo sapiens, DU-4475, 96 h; DU4475, breast cancer, four days; read-out: EC50
HCC1599 = experiment: CellTiter-Glo Viability Assay, breast cancer; format: cell-based; conditions: Homo sapiens, 96 h; HCC1599, breast cancer, four days; read-out: EC50
MCF7 = experiment: CellTiter-Glo Viability Assay, breast cancer; format: cell-based; conditions: Homo sapiens, 96 h; MCF7, breast cancer, four days; read-out: EC50
MDA-MB-231-Luc = experiment: CellTiter-Glo Viability Assay, breast cancer; format: cell-based; conditions: Homo sapiens, 96 h; MDA-MB-231-Luc, breast cancer, four days; read-out: EC50
T47D = experiment: CellTiter-Glo Viability Assay, breast cancer; format: cell-based; conditions: Homo sapiens, 96 h, breast cancer, four days, read-out: EC50
ZR-75-1 = experiment: CellTiter-Glo Viability Assay, breast cancer; format: cell-based; conditions: Homo sapiens, 96 h; ZR-75-1, breast cancer, four days; read-out: EC50
all 50 cell lines = experiment: CellTiter-Glo Viability Assay, average across all cell lines; format: cell-based; conditions: Homo sapiens; across all 50 cell lines; read-out: average EC50 for inhibition of cancer cell proliferation
Summary of the method: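 Luminescent ATP read-out (CellTiter-Glo) after a 4-day compound exposure at 37° C served as the viability measure. Cells were seeded at 300-3,000/well, compound wells run in duplicate against DMSO controls, and EC50 values came from fitted dose-response curves.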

[1] = test system: colorectal cancer (6 cell lines); experiment: CellTiter-Glo Viability Assay, colorectal cancer; format: cell-based; conditions: Homo sapiens, inhibition of cancer cell proliferation
[2] = test system: haematopoietic & lymphoid tumors (13 cell lines); experiment: CellTiter-Glo Viability Assay, haematopoietic & lymphoid tumors; format: cell-based; conditions: Homo sapiens, inhibition of cancer cell proliferation
[3] = test system: liver cancer (3 cell lines); experiment: CellTiter-Glo Viability Assay, liver cancer; format: cell-based; conditions: Homo sapiens, inhibition of cancer cell proliferation
[4] = test system: lung cancer (4 cell lines); experiment: CellTiter-Glo Viability Assay, lung cancer; format: cell-based; conditions: Homo sapiens, inhibition of cancer cell proliferation
[5] = test system: ovarian cancer (4 cell lines); experiment: CellTiter-Glo Viability Assay, ovarian cancer; format: cell-based; conditions: Homo sapiens, inhibition of cancer cell proliferation
[6] = test system: pancreatic cancer (8 cell lines); experiment: CellTiter-Glo Viability Assay, pancreatic cancer; format: cell-based; conditions: Homo sapiens, inhibition of cancer cell proliferation
[7] = test system: prostate cancer (5 cell lines); experiment: CellTiter-Glo Viability Assay, prostate cancer; format: cell-based; conditions: Homo sapiens
CLK3 = CLK3 (Homo sapiens, UniProt P49761); experiment: CLK3 kinase activity assay (Z-lyte, Ser/Thr 18 peptide)
[8] = HCT-116, HCT116 cell line, read-out: Colorectal cancer, EC50 (μM) HCT116
[9] = HT-29, HT29 cell line, read-out: Colorectal cancer, EC50 (μM) HT29
[10] = SW-620, SW620 cell line, read-out: Colorectal cancer, EC50 (μM) SW620
[11] = DLD-1 cell line, read-out: Colorectal cancer, EC50 (μM) DLD-1
[12] = SW48 cell line, read-out: Colorectal cancer, EC50 (μM) SW48
[13] = SW480 cell line, read-out: Colorectal cancer, EC50 (μM) SW480
[14] = DND41, DND-41 cell line, read-out: Haematopoietic & Lymphoid tumors, EC50 (μM) DND-41
[15] = MV4-11, MV-4-11 cell line, read-out: Haematopoietic & Lymphoid tumors, EC50 (μM) MV-4-11
[16] = Rec1, REC-1 cell line, read-out: Haematopoietic & Lymphoid tumors, EC50 (μM) REC-1
[17] = SU-DHL-4, SUDHL4 cell line, read-out: Haematopoietic & Lymphoid tumors, EC50 (μM) SUDHL4
[18] = HL-60 cell line, read-out: Haematopoietic & Lymphoid tumors, EC50 (μM) HL-60
[19] = JM1 cell line, read-out: Haematopoietic & Lymphoid tumors, EC50 (μM) JM1
[20] = JURKAT, Clone E6-1 cell line, read-out: Haematopoietic & Lymphoid tumors, EC50 (μM) JURKAT, Clone E6-1
[21] = JeKo-1 cell line, read-out: Haematopoietic & Lymphoid tumors, EC50 (μM) JeKo-1
[22] = KASUMI-1 cell line, read-out: Haematopoietic & Lymphoid tumors, EC50 (μM) KASUMI-1
[23] = Loucy cell line, read-out: Haematopoietic & Lymphoid tumors, EC50 (μM) Loucy
[24] = MOLT-4 cell line, read-out: Haematopoietic & Lymphoid tumors, EC50 (μM) MOLT-4
[25] = TF-1 cell line, read-out: Haematopoietic & Lymphoid tumors, EC50 (μM) TF-1
[26] = TOLEDO cell line, read-out: Haematopoietic & Lymphoid tumors, EC50 (μM) TOLEDO
[27] = SNU-398, SNU398 cell line, read-out: Liver cancer, EC50 SNU398
[28] = HEPG2 cell line, read-out: Liver cancer, EC50 HEPG2
[29] = PLC/PRF/5 cell line, read-out: Liver cancer, EC50 PLC/PRF/5
[30] = A-427, A427 cell line, read-out: Lung cancer, EC50 (μM) A427
[31] = HCC78, HCC-78 cell line, read-out: Lung cancer, EC50 (μM) HCC-78
[32] = NCI-H460 cell line, read-out: Lung cancer, EC50 (μM) NCI-H460
[33] = NCI-H522 cell line, read-out: Lung cancer, EC50 (μM) NCI-H522
[34] = PA-1, PA1 cell line, read-out: Ovarian cancer, EC50 (μM) PA1
[35] = TOV112D, TOV-112D cell line, read-out: Ovarian cancer, EC50 (μM) TOV-112D
[36] = OV-90 cell line, read-out: Ovarian cancer, EC50 (μM) OV-90
[37] = OVCAR-3 cell line, read-out: Ovarian cancer, EC50 (μM) OVCAR-3
[38] = BXPC-3, BxPC3 cell line, read-out: Pancreatic cancer, EC50 BxPC3
[39] = CAPAN-1, Capan1 cell line, read-out: Pancreatic cancer, EC50 Capan1
[40] = Capan-2, Capan2 cell line, read-out: Pancreatic cancer, EC50 Capan2
[41] = MIA PaCa-2 cell line, read-out: Pancreatic cancer, EC50 MIA PaCa-2
[42] = PANC 05.04 cell line, read-out: Pancreatic cancer, EC50 PANC 05.04
[43] = PANC-1 cell line, read-out: Pancreatic cancer, EC50 PANC-1
[44] = UPAFII cell line, read-out: Pancreatic cancer, EC50 UPAFII
[45] = DU-145, read-out: Prostate cancer EC50 Du-145
[46] = PC-3, PC3 cell line, inhibition of cancer cell proliferation, read-out: Prostate cancer EC50 PC3
[47] = 22Rv1 cell line, inhibition of cancer cell proliferation, read-out: Prostate cancer EC50 22Rv1
[48] = LNCap clone FGC cell line, inhibition of cancer cell proliferation, read-out: Prostate cancer EC50 LNCap clone FGC
[49] = VCaP (Sigma) cell line, inhibition of cancer cell proliferation, read-out: Prostate cancer EC50 VCaP (Sigma)

T1 sequence (P49760 whole entry): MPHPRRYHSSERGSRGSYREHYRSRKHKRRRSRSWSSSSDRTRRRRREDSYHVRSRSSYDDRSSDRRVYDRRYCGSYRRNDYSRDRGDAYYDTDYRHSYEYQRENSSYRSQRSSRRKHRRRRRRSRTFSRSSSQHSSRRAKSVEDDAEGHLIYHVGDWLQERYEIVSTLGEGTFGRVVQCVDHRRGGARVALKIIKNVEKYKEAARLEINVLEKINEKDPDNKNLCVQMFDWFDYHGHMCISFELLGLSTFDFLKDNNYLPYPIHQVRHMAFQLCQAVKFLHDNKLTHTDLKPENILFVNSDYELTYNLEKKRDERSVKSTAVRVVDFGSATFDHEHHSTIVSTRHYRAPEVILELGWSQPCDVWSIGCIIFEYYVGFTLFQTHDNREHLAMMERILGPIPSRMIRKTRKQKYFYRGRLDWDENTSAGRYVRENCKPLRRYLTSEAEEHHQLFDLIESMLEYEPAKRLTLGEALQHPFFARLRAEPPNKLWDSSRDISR
Chain of CLK3 (P49761 whole entry): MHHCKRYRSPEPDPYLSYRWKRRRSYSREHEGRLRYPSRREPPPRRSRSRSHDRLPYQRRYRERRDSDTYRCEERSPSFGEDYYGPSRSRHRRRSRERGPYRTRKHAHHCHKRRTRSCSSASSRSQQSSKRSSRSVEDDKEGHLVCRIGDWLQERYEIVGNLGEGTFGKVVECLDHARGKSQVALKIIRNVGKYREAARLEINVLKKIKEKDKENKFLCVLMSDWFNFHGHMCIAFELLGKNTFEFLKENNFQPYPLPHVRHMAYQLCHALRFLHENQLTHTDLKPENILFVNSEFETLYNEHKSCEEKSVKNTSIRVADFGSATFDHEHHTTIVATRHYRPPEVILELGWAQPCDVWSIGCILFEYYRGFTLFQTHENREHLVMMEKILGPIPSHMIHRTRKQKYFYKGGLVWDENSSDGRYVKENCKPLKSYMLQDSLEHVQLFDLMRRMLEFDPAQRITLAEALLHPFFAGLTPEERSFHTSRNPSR

pEC50 (CLK2): 9.22 | pEC50 (BT-549): 6.38 | pEC50 (CAMA1): 6.05 | pEC50 (DU4475): 6.31 | pEC50 (HCC1599): 6.65 | pEC50 (MCF7): 5.74 | pEC50 (MDA-MB-231-Luc): 5.96 | pEC50 (T47D): 5.93 | pEC50 (ZR-75-1): 5.86 | EC50 [1, 8]: 0.389 µM | EC50 [1, 9]: 0.774 µM | EC50 [1, 10]: 0.206 µM | EC50 [1, 11]: 0.35 µM | EC50 [1, 12]: 0.19 µM | EC50 [1, 13]: 0.546 µM | EC50 [2, 14]: 0.571 µM | EC50 [2, 15]: 0.07 µM | EC50 [2, 16]: 0.162 µM | EC50 [2, 17]: 0.523 µM | EC50 [2, 18]: 0.958 µM | EC50 [2, 19]: 0.165 µM | EC50 [2, 20]: 0.561 µM | EC50 [2, 21]: 0.176 µM | EC50 [2, 22]: 0.257 µM | EC50 [2, 23]: 0.317 µM | EC50 [2, 24]: 0.546 µM | EC50 [2, 25]: 0.649 µM | EC50 [2, 26]: 0.183 µM | pEC50 [3, 27]: 6.87 | pEC50 [3, 28]: 6.22 | pEC50 [3, 29]: 5.90 | EC50 [4, 30]: 0.506 µM | EC50 [4, 31]: 1.14 µM | EC50 [4, 32]: 0.709 µM | EC50 [4, 33]: 0.277 µM | EC50 [5, 34]: 0.537 µM | EC50 [5, 35]: 0.327 µM | EC50 [5, 36]: 1.48 µM | EC50 [5, 37]: 0.232 µM | pEC50 [6, 38]: 6.35 | pEC50 [6, 39]: 6.09 | pEC50 [6, 40]: 5.78 | pEC50 [6, 41]: 6.55 | pEC50 [6, 42]: 5.98 | pEC50 [6, 43]: 6.04 | pEC50 [6, 44]: 6.36 | pEC50 [7, 45]: 6.19 | pEC50 [7, 46]: 6.22 | pEC50 [7, 47]: 6.35 | pEC50 [7, 48]: 6.19 | pEC50 [7, 49]: 5.86 | pEC50 (CLK3): 7.87
SMILES: CN1CCC(Oc2ccc(C(=O)Nc3cc4cc(-c5cnn(C)c5)ccc4cn3)cc2)CC1 [Compound 68]
pEC50 (all 50 cell lines): 6.20

pEC50 (CLK2): 8.80 | pEC50 (BT-549): 6.32 | pEC50 (CAMA1): 5.99 | pEC50 (DU4475): 6.88 | pEC50 (HCC1599): 6.42 | pEC50 (MCF7): 5.74 | pEC50 (MDA-MB-231-Luc): 6.30 | pEC50 (T47D): 5.91 | pEC50 (ZR-75-1): 6.28 | EC50 [1, 8]: 0.15 µM | EC50 [1, 9]: 0.455 µM | EC50 [1, 10]: 0.066 µM | EC50 [1, 11]: 0.132 µM | EC50 [1, 12]: 0.057 µM | EC50 [1, 13]: 0.165 µM | EC50 [2, 14]: 0.106 µM | EC50 [2, 15]: 0.013 µM | EC50 [2, 16]: 0.089 µM | EC50 [2, 17]: 0.074 µM | EC50 [2, 18]: 1.13 µM | EC50 [2, 19]: 0.032 µM | EC50 [2, 20]: 0.271 µM | EC50 [2, 21]: 0.067 µM | EC50 [2, 22]: 0.185 µM | EC50 [2, 23]: 0.145 µM | EC50 [2, 24]: 0.314 µM | EC50 [2, 25]: 0.921 µM | EC50 [2, 26]: 0.065 µM | pEC50 [3, 27]: 7.51 | pEC50 [3, 28]: 5.68 | pEC50 [3, 29]: 5.80 | EC50 [4, 30]: 0.177 µM | EC50 [4, 31]: 0.9 µM | EC50 [4, 32]: 0.454 µM | EC50 [4, 33]: 0.103 µM | EC50 [5, 34]: 0.147 µM | EC50 [5, 35]: 0.292 µM | EC50 [5, 36]: 0.847 µM | EC50 [5, 37]: 0.162 µM | pEC50 [6, 38]: 6.34 | pEC50 [6, 39]: 6.49 | pEC50 [6, 40]: 6.60 | pEC50 [6, 41]: 6.92 | pEC50 [6, 42]: 6.12 | pEC50 [6, 43]: 6.24 | pEC50 [6, 44]: 6.72 | pEC50 [7, 45]: 6.75 | pEC50 [7, 46]: 6.50 | pEC50 [7, 47]: 6.92 | pEC50 [7, 48]: 5.97 | pEC50 [7, 49]: 6.46 | pEC50 (CLK3): 7.92
SMILES: CN1CCCCN(C)c2nccc3[nH]c(nc23)-c2n[nH]c3ccc(cc23)-c2cncc(c2)C1 [Compound 58]
pEC50 (all 50 cell lines): 6.36
